Results taken from patent US12492193B2, “Pyrazole derivatives for the treatment of cystic fibrosis” (Fondazione Istituto Italiano Di Tecnologia, priority 2017, dated 2025).

Biological target: T1, mutant CFTR (Homo sapiens, UniProt P13569, DEL508-508)
T1 construct: expressed in transfected cells
Experiment: Fluorescence (HS-YFP) assay for CFTR activity, corrector assay
Assay type: cell-based
Conditions: CFBE41o- and FRT cells with stable expression of mutant CFTR, 24 h compound treatment
Outline: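 Corrector activity: 24 h compound treatment of HS-YFP/mutant-CFTR CFBE41o- or FRT cells, followed by 30 min forskolin 20 μM + genistein 50 μM at 37° C. Iodide influx (100 mM final) was tracked as fluorescence quenching, with dF/dt extrapolated by exponential fitting; EC50 values derived.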

T1 sequence (P13569 with tags, fused parts or gaps DEL508-508): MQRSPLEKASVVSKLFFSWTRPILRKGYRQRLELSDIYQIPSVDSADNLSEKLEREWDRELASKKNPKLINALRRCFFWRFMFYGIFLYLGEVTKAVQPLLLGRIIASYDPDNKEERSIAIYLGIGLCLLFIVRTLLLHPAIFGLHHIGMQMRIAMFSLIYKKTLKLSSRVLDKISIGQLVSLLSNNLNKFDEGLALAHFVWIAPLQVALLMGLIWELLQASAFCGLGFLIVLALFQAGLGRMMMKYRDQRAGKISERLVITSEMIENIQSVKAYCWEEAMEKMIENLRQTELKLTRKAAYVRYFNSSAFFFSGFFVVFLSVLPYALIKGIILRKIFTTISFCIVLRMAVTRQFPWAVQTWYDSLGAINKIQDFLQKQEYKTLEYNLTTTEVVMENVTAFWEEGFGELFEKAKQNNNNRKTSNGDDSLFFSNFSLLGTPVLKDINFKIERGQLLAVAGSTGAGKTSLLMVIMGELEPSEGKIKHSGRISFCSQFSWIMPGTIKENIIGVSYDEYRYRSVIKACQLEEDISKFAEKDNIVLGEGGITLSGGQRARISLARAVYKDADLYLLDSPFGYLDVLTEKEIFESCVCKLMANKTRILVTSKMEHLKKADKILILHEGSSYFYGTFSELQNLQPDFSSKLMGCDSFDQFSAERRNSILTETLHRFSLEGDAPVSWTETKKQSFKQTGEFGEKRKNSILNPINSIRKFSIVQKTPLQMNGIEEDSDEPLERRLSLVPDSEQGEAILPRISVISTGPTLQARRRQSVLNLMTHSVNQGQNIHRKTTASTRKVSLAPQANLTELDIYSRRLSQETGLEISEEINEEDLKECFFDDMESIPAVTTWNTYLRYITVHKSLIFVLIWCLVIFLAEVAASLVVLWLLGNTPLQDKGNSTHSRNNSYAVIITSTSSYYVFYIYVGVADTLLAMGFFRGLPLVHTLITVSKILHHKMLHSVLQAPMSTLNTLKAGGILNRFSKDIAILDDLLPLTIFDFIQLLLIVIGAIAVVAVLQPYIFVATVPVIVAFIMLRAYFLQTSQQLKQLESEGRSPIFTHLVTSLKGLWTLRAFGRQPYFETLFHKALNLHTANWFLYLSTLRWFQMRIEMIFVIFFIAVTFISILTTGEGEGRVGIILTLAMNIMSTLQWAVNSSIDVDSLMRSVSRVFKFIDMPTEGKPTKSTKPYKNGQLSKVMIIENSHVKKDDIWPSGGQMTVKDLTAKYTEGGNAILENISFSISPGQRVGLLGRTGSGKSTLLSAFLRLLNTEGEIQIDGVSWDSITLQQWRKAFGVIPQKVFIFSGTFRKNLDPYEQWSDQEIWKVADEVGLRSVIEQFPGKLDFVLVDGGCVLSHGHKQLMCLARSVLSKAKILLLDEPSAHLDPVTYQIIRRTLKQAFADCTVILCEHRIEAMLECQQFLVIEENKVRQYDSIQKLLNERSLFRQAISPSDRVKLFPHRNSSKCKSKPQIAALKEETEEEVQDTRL

Row | SMILES | EC50
1 | Cc1nn(-c2cc(C(=O)N(C)c3ccc4c(c3)OCO4)ccc2C(F)(F)F)c(C)c1Cl [compound 071, N-(1,3-Benzodioxol-5-yl)-3-(4-chloro-3,5-dimethyl-pyrazol-1-yl)-N-methyl-4-(trifluoromethyl)benzamide] | > 2000 nM
2 | Cc1nn(-c2nccc(C(=O)N(C)c3ccc4c(c3)OCO4)n2)c(C)c1Cl [compound 072, N-(1,3-Benzodioxol-5-yl)-2-(4-chloro-3,5-dimethyl-pyrazol-1-yl)-N-methyl-pyrimidine-4-carboxamide] | > 2000 nM
3 | Cc1c(Cl)c(CO)nn1-c1cccc(C(=O)N(C)c2ccc3c(c2)OCO3)c1 [compound 073, N-(1,3-Benzodioxol-5-yl)-3-[4-chloro-3-(hydroxylmethyl)-5-methyl-pyrazol-1-yl]-N-methyl-benzamide] | > 2000 nM
4 | Cc1c(Cl)c(C(N)=O)nn1-c1cccc(C(=O)N(C)c2ccc3c(c2)OCO3)c1 [compound 074, 1-[3-[1,3-Benzodioxol-5-yl(methyl)carbamoyl]phenyl]-4-chloro-5-methyl-pyrazole-3-carboxamide] | > 2000 nM
5 | Cc1nn(-c2cccc(C(=O)N(C)c3ccc4oc(C(F)(F)F)nc4c3)c2)c(C)c1Cl [compound 078, 3-(4-Chloro-3,5-dimethyl-pyrazol-1-yl)-N-methyl-N-[2-(trifluoromethyl)-1,3-benzoxazol-5-yl]benzamide] | > 2000 nM
6 | Cc1nc2ccc(N(C)C(=O)c3cccc(-n4nc(C)c(Cl)c4C)c3)cn2n1 [compound 079, 3-(4-Chloro-3,5-dimethyl-pyrazol-1-yl)-N-methyl-N-(2-methyl-[1,2,4]triazolo[1,5-a]pyridin-6-yl)benzamide] | > 2000 nM
7 | Cc1nn(-c2cccc(C(=O)N(C)c3ccc4c(c3)OCO4)c2)c(C)c1C#N [compound 081, N-(1,3-Benzodioxol-5-yl)-3-(4-cyano-3,5-dimethyl-pyrazol-1-yl)-N-methyl-benzamide] | > 2000 nM
8 | Cc1ccc(C(=O)N(C)c2ccc3c(c2)OCO3)cc1-n1nc(C)c(Cl)c1C [compound 082, N-(1,3-Benzodioxol-5-yl)-3-(4-chloro-3,5-dimethyl-pyrazol-1-yl)-N,4-dimethyl-benzamide] | 1000 to 2000 nM
9 | Cc1nn(-c2cccc(C(=O)N(C)c3ccc4c(c3)OCO4)c2)c(C(=O)O)c1Cl [compound 083, 2-[3-[1,3-Benzodioxol-5-yl(methyl)carbamoyl]phenyl]-4-chloro-5-methyl-pyrazole-3-carboxylic acid] | > 2000 nM
10 | Cc1nn(-c2cccc(C(=O)N(C)c3ccc4c(c3)OCO4)c2)c(C(N)=O)c1Cl [compound 084, 2-[3-[1,3-benzodioxol-5-yl(methyl)carbamoyl]phenyl]-4-chloro-5-methyl-pyrazole-3-carboxamide] | > 2000 nM
11 | CNC(=O)c1c(Cl)c(C)nn1-c1cccc(C(=O)N(C)c2ccc3c(c2)OCO3)c1 [compound 085, 2-[3-[1,3-benzodioxol-5-yl(methyl)carbamoyl]phenyl]-4-chloro-N,5-dimethyl-pyrazole-3-carboxamide] | > 2000 nM
12 | CCOC(=O)c1nn(-c2cccc(C(=O)N(C)c3ccc4c(c3)OCO4)c2)c(C(C)C)c1Cl [compound 086, Ethyl 1-[3-[1,3-benzodioxol-5-yl(methyl)carbamoyl]phenyl]-4-chloro-5-isopropyl-pyrazole-3-carboxylate] | > 2000 nM
13 | Cc1nn(-c2cccc(C(=O)N(C)c3ccc4c(c3)OCO4)c2)c(C(=O)N(C)C)c1Cl [compound 088, 2-[3-[1,3-benzodioxol-5-yl(methyl)carbamoyl]phenyl]-4-chloro-N,N,5-trimethyl-pyrazole-3-carboxamide] | > 2000 nM
14 | Cc1cc(C(F)(F)F)nn1-c1cccc(C(=O)N(C)c2ccc3c(c2)OCO3)c1 [compound 091, N-(1,3-Benzodioxol-5-yl)-N-methyl-3-[5-methyl-3-(trifluoromethyl)pyrazol-1-yl]benzamide] | 1000 to 2000 nM
15 | CCc1cc(CC)n(-c2cccc(C(=O)N(C)c3ccc4c(c3)OCO4)c2)n1 [compound 093, N-(1,3-Benzodioxol-5-yl)-3-(3,5-diethylpyrazol-1-yl)-N-methyl-benzamide] | 1000 to 2000 nM
16 | Cc1nn(-c2cccc(C(=O)N(C)c3ccc4c(c3)OCO4)c2)c(CO)c1Cl [compound 105, N-(1,3-benzodioxol-5-yl)-3-[4-chloro-5-(hydroxylmethyl)-3-methyl-pyrazol-1-yl]-N-methyl-benzamide] | 1000 to 2000 nM
17 | Cc1nn(-c2cccc(C(=O)N(C)c3ccc4c(c3)OCO4)c2)c(C(C)(C)O)c1Cl [compound 115, N-(1,3-Benzodioxol-5-yl)-3-[4-chloro-5-(1-hydroxy-1-methyl-ethyl)-3-methyl-pyrazol-1-yl]-N-methyl-benzamide] | 1000 to 2000 nM
18 | CC(=O)c1c(Cl)c(C)nn1-c1cccc(C(=O)N(C)c2ccc3c(c2)OCO3)c1 [compound 116, 3-(5-Acetyl-4-chloro-3-methyl-pyrazol-1-yl)-N-(1,3-benzodioxol-5-yl)-N-methyl-benzamide] | < 1000 nM

More lines, now with the values ahead:

Row | EC50 | SMILES
19 | < 1000 nM | CCc1nc2ccc(N(C)C(=O)c3cccc(-n4nc(C)c(Cl)c4C)c3)cc2o1 [compound 076, 3-(4-Chloro-3,5-dimethyl-pyrazol-1-yl)-N-(2-ethyl-1,3-benzoxazol-6-yl)-N-methyl-benzamide]
20 | < 1000 nM | Cc1cn2cc(N(C)C(=O)c3cccc(-n4nc(C)c(Cl)c4C)c3)ccc2n1 [compound 077, 3-(4-Chloro-3,5-dimethyl-pyrazol-1-yl)-N-methyl-N-(2-methylimidazo[1,2-a]pyridin-6-yl)benzamide]
21 | < 1000 nM | CCOC(=O)c1c(Cl)c(C(C)C)nn1-c1cccc(C(=O)N(C)c2ccc3c(c2)OCO3)c1 [compound 087, Ethyl 2-[3-[1,3-benzodioxol-5-yl(methyl)carbamoyl]phenyl]-4-chloro-5-isopropyl-pyrazole-3-carboxylate]
22 | < 1000 nM | CCc1nn(-c2cccc(C(=O)N(C)c3ccc4c(c3)OCO4)c2)c(CC)c1Cl [compound 092, N-(1,3-Benzodioxol-5-yl)-3-(4-chloro-3,5-diethyl-pyrazol-1-yl)-N-methyl-benzamide]
23 | < 1000 nM | Cc1nn(-c2cccc(C(=O)N(C)c3ccc4c(c3)OCO4)c2)c(C2CC2)c1Cl [compound 094, N-(1,3-Benzodioxol-5-yl)-3-(4-chloro-5-cyclopropyl-3-methyl-pyrazol-1-yl)-N-methyl-benzamide]
24 | < 1000 nM | Cc1c(Cl)c(C(F)(F)F)nn1-c1cccc(C(=O)N(C)c2ccc3c(c2)OC(F)(F)O3)c1 [compound 095, 3-[4-Chloro-5-methyl-3-(trifluoromethyl)pyrazol-1-yl]-N-(2,2-difluoro-1,3-benzodioxol-5-yl)-N-methyl-benzamide]
25 | < 1000 nM | Cc1c(Cl)c(C(F)(F)F)nn1-c1cccc(C(=O)N(C)c2ccc3c(c2)OCCO3)c1 [compound 096, 3-[4-Chloro-5-methyl-3-(trifluoromethyl)pyrazol-1-yl]-N-(2,3-dihydro-1,4-benzodioxin-6-yl)-N-methyl-benzamide]
26 | < 1000 nM | Cc1cc(C2CC2)n(-c2cccc(C(=O)N(C)c3ccc4c(c3)OCO4)c2)n1 [compound 097, N-(1,3-Benzodioxol-5-yl)-3-(5-cyclopropyl-3-methyl-pyrazol-1-yl)-N-methyl-benzamide]
27 | < 1000 nM | CC(C)Cc1c(Cl)c(C(F)(F)F)nn1-c1cccc(C(=O)N(C)c2ccc3c(c2)OCO3)c1 [compound 101, N-(1,3-Benzodioxol-5-yl)-3-[4-chloro-5-isobutyl-3-(trifluoromethyl)pyrazol-1-yl]-N-methyl-benzamide]
28 | < 1000 nM | Cc1nn(-c2cccc(C(=O)N(C)c3ccc4c(c3)OCO4)c2)c(C(F)(F)F)c1Cl [compound 102, N-(1,3-Benzodioxol-5-yl)-3-[4-chloro-3-methyl-5-(trifluoromethyl)pyrazol-1-yl]-N-methyl-benzamide]
29 | < 1000 nM | CCOC(=O)c1c(Cl)c(C)nn1-c1cccc(C(=O)N(C)c2ccc3c(c2)OCCO3)c1 [compound 103, Ethyl 4-chloro-2-[3-[2,3-dihydro-1,4-benzodioxin-6-yl (methyl)carbamoyl]phenyl]-5-methyl-pyrazole-3-carboxylate]
30 | < 1000 nM | Cc1c(C2CC2)c(C(F)(F)F)nn1-c1cccc(C(=O)N(C)c2ccc3c(c2)OCO3)c1 [compound 104, N-(1,3-Benzodioxol-5-yl)-3-[4-cyclopropyl-5-methyl-3-(trifluoromethyl)pyrazol-1-yl]-N-methyl-benzamide]
31 | < 1000 nM | Cc1c(Cl)c(C(F)(F)F)nn1-c1cccc(C(=O)N(C)c2cc3c(cc2Cl)OCO3)c1 [compound 106, N-(6-Chloro-1,3-benzodioxol-5-yl)-3-[4-chloro-5-methyl-3-(trifluoromethyl)pyrazol-1-yl]-N-methyl-benzamide]
32 | < 1000 nM | COCc1c(Cl)c(C)nn1-c1cccc(C(=O)N(C)c2ccc3c(c2)OCO3)c1 [compound 107, N-(1,3-benzodioxol-5-yl)-3-[4-chloro-5-(methoxymethyl)-3-methyl-pyrazol-1-yl]-N-methyl-benzamide]
33 | < 1000 nM | CC(C)Cc1c(Cl)c(C(F)(F)F)nn1-c1cccc(C(=O)N(C)c2cc3c(cc2Cl)OCO3)c1 [compound 110, N-(6-Chloro-1,3-benzodioxol-5-yl)-3-[4-chloro-5-isobutyl-3-(trifluoromethyl)pyrazol-1-yl]-N-methyl-benzamide]
34 | < 1000 nM | CN(C(=O)c1cccc(-n2nc(C(F)(F)F)c(Cl)c2C2CC2)c1)c1ccc2c(c1)OCO2 [compound 111, N-(1,3-Benzodioxol-5-yl)-3-[4-chloro-5-cyclopropyl-3-(trifluoromethyl)pyrazol-1-yl]-N-methyl-benzamide]
35 | < 1000 nM | Cc1nn(-c2cccc(C(=O)N(C)c3ccc4c(c3)OCO4)c2)c(C=O)c1Cl [compound 112, N-(1,3-benzodioxol-5-yl)-3-(4-chloro-5-formyl-3-methyl-pyrazol-1-yl)-N-methyl-benzamide]
